Measurements reported in patent publication US8192962B2, “Processes for detecting toxic substances” (Daikin Industries, Ltd., priority 2001, dated 2012).

Tested on: Unknown protein yeast genes
Assay: DNA chip mRNA expression in yeast, unknown protein yeast genes (Table 1)
Assay type: cell-based, Saccharomyces cerevisiae S288C
Method in brief: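 Whole-genome yeast DNA chip hybridization (65° C., >12 h) of Cy-labeled cDNA from S288C cells exposed 2 h at 25° C. to a sub-lethal toxicant dose in YPD; value is intensity relative to chemical-free control.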

CCCCC[C@H](O)CC(=O)CCc1ccc(O)c(OC)c1 [(13), gingerol]
The level of expressed mRNA in the presence of chemical substance/The level of expressed mRNA in the absence of chemical substance (yeast gene YAL018C): 1.3
The level of expressed mRNA in the presence of chemical substance/The level of expressed mRNA in the absence of chemical substance (yeast gene YAL049C, incubated two hours with substance): 1.6
The level of expressed mRNA in the presence of chemical substance/The level of expressed mRNA in the absence of chemical substance (yeast gene YAR031W): 3.3
The level of expressed mRNA in the presence of chemical substance/The level of expressed mRNA in the absence of chemical substance (yeast gene YAR047C): 1.4
The level of expressed mRNA in the presence of chemical substance/The level of expressed mRNA in the absence of chemical substance (yeast gene YAR064W): 1.1
The level of expressed mRNA in the presence of chemical substance/The level of expressed mRNA in the absence of chemical substance (yeast gene YBL048W): 2.7
The level of expressed mRNA in the presence of chemical substance/The level of expressed mRNA in the absence of chemical substance (yeast gene YBL049W): 3.9
The level of expressed mRNA in the presence of chemical substance/The level of expressed mRNA in the absence of chemical substance (yeast gene YBL107C): 2.6
The level of expressed mRNA in the presence of chemical substance/The level of expressed mRNA in the absence of chemical substance (yeast gene YBR012C): 2.1
The level of expressed mRNA in the presence of chemical substance/The level of expressed mRNA in the absence of chemical substance (yeast gene YBR062C): 2.8
The level of expressed mRNA in the presence of chemical substance/The level of expressed mRNA in the absence of chemical substance (yeast gene YBR124W): 0.9
The level of expressed mRNA in the presence of chemical substance/The level of expressed mRNA in the absence of chemical substance (yeast gene YBR287W): 3.4
The level of expressed mRNA in the presence of chemical substance/The level of expressed mRNA in the absence of chemical substance (yeast gene YCL056C): 1.3
The level of expressed mRNA in the presence of chemical substance/The level of expressed mRNA in the absence of chemical substance (yeast gene YCR007C): 1.5
The level of expressed mRNA in the presence of chemical substance/The level of expressed mRNA in the absence of chemical substance (yeast gene YCR013C): 3.9
The level of expressed mRNA in the presence of chemical substance/The level of expressed mRNA in the absence of chemical substance (yeast gene YDL027C): 3.2
The level of expressed mRNA in the presence of chemical substance/The level of expressed mRNA in the absence of chemical substance (yeast gene YDL046W): 1.5
The level of expressed mRNA in the presence of chemical substance/The level of expressed mRNA in the absence of chemical substance (yeast gene YDL110C): 2.7
The level of expressed mRNA in the presence of chemical substance/The level of expressed mRNA in the absence of chemical substance (yeast gene YDL169C): 3.7
The level of expressed mRNA in the presence of chemical substance/The level of expressed mRNA in the absence of chemical substance (yeast gene YDR090C): 0.8
The level of expressed mRNA in the presence of chemical substance/The level of expressed mRNA in the absence of chemical substance (yeast gene YDR128W): 1.1
The level of expressed mRNA in the presence of chemical substance/The level of expressed mRNA in the absence of chemical substance (yeast gene YDR133C): 0.1
The level of expressed mRNA in the presence of chemical substance/The level of expressed mRNA in the absence of chemical substance (yeast gene YDR210W): 2.3
The level of expressed mRNA in the presence of chemical substance/The level of expressed mRNA in the absence of chemical substance (yeast gene YDR250C): 1.2
The level of expressed mRNA in the presence of chemical substance/The level of expressed mRNA in the absence of chemical substance (yeast gene YDR366C): 0.8
The level of expressed mRNA in the presence of chemical substance/The level of expressed mRNA in the absence of chemical substance (yeast gene YDR435C): 2.5
The level of expressed mRNA in the presence of chemical substance/The level of expressed mRNA in the absence of chemical substance (yeast gene YDR476C): 2.8
The level of expressed mRNA in the presence of chemical substance/The level of expressed mRNA in the absence of chemical substance (yeast gene YER037W): 3.0
The level of expressed mRNA in the presence of chemical substance/The level of expressed mRNA in the absence of chemical substance (yeast gene YFL024C): 0.9
The level of expressed mRNA in the presence of chemical substance/The level of expressed mRNA in the absence of chemical substance (yeast gene YFR003C): 2.5
The level of expressed mRNA in the presence of chemical substance/The level of expressed mRNA in the absence of chemical substance (yeast gene YFR026C): 1.1
The level of expressed mRNA in the presence of chemical substance/The level of expressed mRNA in the absence of chemical substance (yeast gene YGR035C): 2.1
The level of expressed mRNA in the presence of chemical substance/The level of expressed mRNA in the absence of chemical substance (yeast gene YGR038W): 1.2
The level of expressed mRNA in the presence of chemical substance/The level of expressed mRNA in the absence of chemical substance (yeast gene YGR110W): 3.6
The level of expressed mRNA in the presence of chemical substance/The level of expressed mRNA in the absence of chemical substance (yeast gene YGR139W): 0.4
The level of expressed mRNA in the presence of chemical substance/The level of expressed mRNA in the absence of chemical substance (yeast gene YGR237C, incubated two hours with substance): 1.6
The level of expressed mRNA in the presence of chemical substance/The level of expressed mRNA in the absence of chemical substance (yeast gene YGR277C, incubated two hours with substance): 1.6
The level of expressed mRNA in the presence of chemical substance/The level of expressed mRNA in the absence of chemical substance (yeast gene YHL006C): 1.1
The level of expressed mRNA in the presence of chemical substance/The level of expressed mRNA in the absence of chemical substance (yeast gene YHR209W): 2.0
The level of expressed mRNA in the presence of chemical substance/The level of expressed mRNA in the absence of chemical substance (yeast gene YIL127C): 0.4
The level of expressed mRNA in the presence of chemical substance/The level of expressed mRNA in the absence of chemical substance (yeast gene YJL017W): 1.5
The level of expressed mRNA in the presence of chemical substance/The level of expressed mRNA in the absence of chemical substance (yeast gene YJL037W): 1.1
The level of expressed mRNA in the presence of chemical substance/The level of expressed mRNA in the absence of chemical substance (yeast gene YKL097C): 0.9
The level of expressed mRNA in the presence of chemical substance/The level of expressed mRNA in the absence of chemical substance (yeast gene YKL107W): 1.9
The level of expressed mRNA in the presence of chemical substance/The level of expressed mRNA in the absence of chemical substance (yeast gene YKR040C): 0.6
The level of expressed mRNA in the presence of chemical substance/The level of expressed mRNA in the absence of chemical substance (yeast gene YKR075C): 3.8
The level of expressed mRNA in the presence of chemical substance/The level of expressed mRNA in the absence of chemical substance (yeast gene YLR064W, incubated two hours with substance): 1.6
The level of expressed mRNA in the presence of chemical substance/The level of expressed mRNA in the absence of chemical substance (yeast gene YLR297W): 0.8
The level of expressed mRNA in the presence of chemical substance/The level of expressed mRNA in the absence of chemical substance (yeast gene YLR338W): 1.2
The level of expressed mRNA in the presence of chemical substance/The level of expressed mRNA in the absence of chemical substance (yeast gene YLR392C): 1.4
